Data on 65 compounds can be found in a melting point compilation (Tetko et al.; mined from patent text by program, amines drawn as free bases though some values may be those of a salt).

Where only a bound is given, the exact number is not on record here.

On to `CCCCCCCOc1cc2c(cc1C(=O)c1ccc(C(=O)O)cc1)C(C)(C)CCC2(C)C`, for which the melting point was in the range of 154 to 158 °C. Regarding `COc1ccc(C(=O)O)c(OCCN2CCC(c3cn(Cc4ccoc4)c4ncccc34)CC2)c1`, the melting point is 91.5 to 93.2 °C.

Regarding `Cc1nnc(-c2ccccc2)c2nc(OCc3ncnn3C)c(C3CCC3)n12`, the melting point is 160 °C. The figure for `Cc1nc2cc(NCC(=O)C(C)(C)C)ccc2s1` is 108 to 111 °C. `N#Cc1csc([N+](=O)[O-])c1Br` showed a melting point of 176 to 178 °C. The figure for `O=C/C=C/c1ccc2ccccc2n1` is 85 °C; for `O=c1ncc(F)cn1CCO` it is 134 to 136 °C; for `CCCC12CCC3c4ccc(OC)cc4CCC3C1CCC2O` (stereo not given) it is 141 to 143 °C. The figure for `CCC(=O)N1c2ccccc2NC(=O)c2cscc21` is 222 to 224 °C. The figure for `CC(C)Cn1cnc2cnc3cccnc3c21` is 82 to 84 °C; for `CC1(Cl)C(=S)Nc2ccc(Cl)cc21` (stereo not given) it is 248 to 251 °C. `Cc1cc(Cl)c2[nH]nc(C)c2n1` yielded a melting point of 176 to 178 °C. The figure for `COc1cc(S(C)(=O)=O)ccc1-n1nc(C(F)(F)F)cc1-c1ccc(-c2ccco2)cc1` is 200 °C; for `c1nc2c(cc1NC1=NCCN1)COCC2` it is 201 to 202 °C; for `CCNCC1CCN(c2c(F)cc3c(=O)c(C(=O)O)cn(C4CC4)c3c2F)C1` (stereo not given) it is 256 to 258 °C. The figure for `Cc1ccc(-c2nc3ccc(C(C)(C)CN)cc3[nH]2)cc1` is 45 to 48 °C; for `COC(=O)C(=CNc1c(-c2ccccc2)csc1C(=O)O)SC` it is 90 to 92 °C.

`N#Cc1ccc(N2CCC(F)C2)c2ccsc12` (stereo not given): the melting point fell in the range of 151 to 152 °C. The figure for `CCNC1CN(c2cc3c(cc2F)c(=O)c(C(=O)O)cn3C2CC2)C1` is 220 to 224 °C; for `Cc1nc(-c2ccccc2)cc(-c2cccc(C=O)c2)c1C(=O)NCCN1CCOCC1` it is 122 to 125 °C; for `CC(C)COC(=O)Nc1ccc(Sc2c(O)c3c(Cl)cc(Cl)cc3[nH]c2=O)cc1` it is above 300 °C. The figure for `CC(CC(=O)O)=NNC(=N)N` is 139 to 140 °C; for `COC(=O)C(C)N(C(=O)CO)c1c(C)csc1C` (stereo not given) it is 69 to 70 °C; for `Nc1nc(F)cc(CF)n1` it is 189 to 190 °C. The figure for `OCCC1=Cc2ccccc2C1` is 47 to 49 °C; for `CCOC(=O)C1=C(C)NC(COC(=O)COc2ccc(Cl)cc2)=C(C(=O)OCC)C1c1ccccc1[N+](=O)[O-]` (stereo not given) it is 86 to 88 °C; for `CCCOC1=Nc2c(ncn2-c2ccccc2)C2=N[C@@H](Cc3ccccc3)CN12` it is 74 to 80 °C. For the compound `CCOC1=Cc2ccccc2N(C)c2ccc(Br)cc21`, the melting point is 131 °C. `Cc1cc2c(cc1OC(=S)N(C)C)C(C)(C)CCC2(C)C` gave a melting point of 102 to 103 °C. The figure for `CCOC(=O)c1ccc(-c2nc3ccc(C)cn3c2CNC(=O)CC(C)C)cc1` is 230 to 231 °C; for `COC(c1ccccc1)n1cnc2c(-c3cccs3)nc(Cl)nc21` (stereo not given) it is 183 to 185 °C. The compound `O=C(NC1CCC(CCN2CCC(c3cccc4c3CCO4)CC2)CC1)C1CCOC1` (racemic) came in with a melting point of 211 °C. The figure for `CC(C)CCN1C(=O)C(NC(=O)Nc2ccccc2)C(=O)N(CCN(C)C)c2ccccc21` (stereo not given) is 159 to 161 °C. The figure for `CCOC(=O)C1CCN(c2nnc(-c3ccc(C)cc3)c(-c3ccc(C)cc3)n2)CC1` is 102 to 104 °C; for `CCn1c(=O)c(C#N)c(O)c2ccc(C)nc21` it is 274 to 276 °C. The figure for `O=C1NC(=O)c2c1c(-c1ccccc1)cc1[nH]c3ccccc3c21` is 262 to 264 °C. Turning to `CCOC(=O)C(=CNN(C)C)C(=O)c1cc(F)c(F)c(F)c1F`, the melting point came out at 81 °C. The figure for `COc1cc2c(cc1OC)[C@@H]1CCCC[C@@H]1N=C2c1ccc(N)cc1` (racemic) is 160 to 161 °C; for `Cc1oc(-c2ccccc2)nc1C(O)COc1ccc(CC2SC(=O)NC2=O)nc1` (stereo not given) it is 55 to 72 °C. The figure for `CC(C)(C)c1cc(CP(=O)(O)c2ccccc2)cc(C(C)(C)C)c1O` is 185 to 186 °C. Take `O=C(Nc1nccs1)C(CC1CCCC1)c1cccc(C(F)(F)F)c1` (stereo not given): the melting point was 134 to 136 °C. The figure for `CCC(Oc1ccccc1OC)C(=O)OC1CC(O)C=C2C=CC(C)C(CCC3CC(O)CC(=O)O3)C21` (mixture of isomers) is 116 to 117 °C. The figure for `CC(C)Sc1sc(C(=O)N2CCCC2)c2c1-c1oncc1C(C)(C)C2` is 88 to 91 °C. The figure for `Oc1ccc(-c2nn(-c3cc(Cl)ccc3Cl)c3cc(O)ccc23)c(O)c1` is 78 to 80 °C. In the case of `CC(C)(C)C1OCC(S)(CCO)CO1` (stereo not given), the melting point worked out at 68 °C. The figure for `C=CCc1c(O)c(Br)cc2c1[C@H](CCNC(=O)CC)CC2` is 85 to 87 °C; for `CCc1nc2cnc3ccccc3c2n1CC(C)C` it is 72 to 73.5 °C; for `CSC(=N)c1cc(Oc2ccc(C(F)(F)F)cc2Cl)ccc1[N+](=O)[O-]` it is 103 °C.

`Ic1ccc2c(c1)ncn2-c1cccc(-c2ccccn2)c1` came in with a melting point of 157 to 158 °C. The figure for `Cc1noc2cc3c(cc12)C1(CO3)C(=O)N(Cc2nc(C(=O)N(C)C)co2)c2ccccc21` (stereo not given) is 87 to 89 °C; for `CCOC(=O)Cc1c(C(C)C(=O)O)c2cc(OC)ccc2n1Cc1ccc(Cl)cc1` (stereo not given) it is 163 to 165 °C. On to `CCCCCS(=O)(=O)NC(=O)/C=C/c1ccc(OCCOC)cc1Oc1ccc(C(F)(F)F)cc1Cl`, for which the melting point was 134 to 135 °C.

`CC(C)(C)c1cc(C=Cc2ccccc2O)on1` displayed a melting point of 152 to 155 °C. The figure for `O=c1[nH]c2ncc(-c3ccc4[nH]cnc4c3)nc2n1CC1CCCCC1` is 217 to 220 °C; for `Fc1ccc(Oc2cc3cnc(Cl)nc3cn2)c(F)c1` it is 210 to 212 °C; for `FC(F)(F)c1cc(Br)c(C(F)(F)F)cc1Br` it is 64 to 65 °C. The figure for `O=S1(=O)NC(c2ccccc2)Nc2ccccc21` (stereo not given) is 126 to 128 °C; for `CC(C)(C)OC(=O)Nc1cc(OCC2COC(C)(C)O2)c(C#Cc2ccccc2)cc1NC(=O)CC(=O)c1cccc(C#N)c1` (stereo not given) it is 132 to 134 °C. Compound `COC(=O)c1c(Cl)cc(Cl)cc1NC(=O)CSc1cccc(OC)c1` yielded a melting point of 89 to 90 °C. The figure for `N#Cc1ccc(Cc2nccc(-c3ccc(C#N)cc3)n2)cc1` is 155 to 156 °C; for `Cc1nc(-c2ccccc2C(F)(F)F)c(-c2ccccc2C(F)(F)F)o1` it is 100 to 102 °C; for `COc1ccc(I)cc1C(=O)O` it is 150 to 152 °C. The figure for `CSCCOC(=O)N(C)c1cnc(-c2cncc(F)c2)s1` is 115 to 117 °C; for `O=c1cc(-c2ccccc2)oc2cc(OCCCCCCN3CCCCC3)cc(O)c12` it is 103 °C.

For `O=[N+]([O-])c1cc(CO)cc([N+](=O)[O-])c1`, the melting point is 89 °C.

A word on the melting point: it is the temperature, or range, at which the solid turns liquid.
